Measured values published in patent EP0786252A1 (priority 1994, dated 1996).
Read-outs that look alike come from different tables or passages of the source.

Assays:
[1] = test system: lymphocytic leukemia P388 cells; experiment: Antiproliferative activity against drug-resistant tumor cells (cell count after 72 hours); type: cell-based
Protocol: (§1) Compound (I) was tested for its antiproliferative activity against lymphocytic leukemia P388 cells, adriamycin-resistant P388 cells (P388/ADM), cisplatin-resistant P388 cells (P388/CDDP), cyclophosphamide-resistant P388 cells (P388/CPM), and mitomycin C-resistant P388 cells (P388/MMC), in the manner described below.
P388 cells were suspended in an RPMI-1640 medium containing 10 % fetal calf serum, 100 units/ml penicillin, 100 µg/ml streptomycin and 20 µM 2-mercaptoethanol at a concentration of 3 x 10^4 cells/ml, and 0.1 ml of the cell suspension was put into each well of a 96-well microplate. The cells were incubated in a carbon dioxide incubator (5 % carbon dioxide) overnight at 37°C, and 0.05 ml/well of a compound (I) that had been suitably diluted with the medium was added to each well.
(§2) The cells were further incubated in the carbon dioxide incubator for 72 hours, then the culture supernatant was removed, and the number of the cells was counted using a cell counter. The number of non-treated cells was compared with that of cells treated with the compound (I), from which was obtained the concentration of the chemical that inhibited 50 % of the cell growth. This is referred to as IC50.

[2] = test system: mitomycin C-resistant P388 cells (P388/MMC); experiment: as above; type: cell-based
Protocol: as §1
(§3) P388 cells were suspended in an RPMI-1640 medium containing 10 % fetal calf serum, 100 units/ml penicillin, 100 µg/ml streptomycin and 20 µM 2-mercaptoethanol at a concentration of 3 x 10^4 cells/ml, and 0.1 ml of the cell suspension was put into each well of a 96-well microplate.
as §2
(§4) For the others, P388/ADM cells, P388/CDDP cells, P388/CPM cells and P388/MMC cells, IC50 of the compound (I) was obtained in the same manner as above.

[3] = test system: cyclophosphamide-resistant P388 cells (P388/CPM); experiment: as above; type: cell-based
Protocol: as §1, §3, §2, §4

[4] = test system: adriamycin-resistant P388 cells (P388/ADM); experiment: as above; type: cell-based
Protocol: as §1, §3, §2, §4

[5] = test system: cisplatin-resistant P388 cells (P388/CDDP); experiment: as above; type: cell-based
Protocol: as §1, §3, §2, §4

ddY mice = experiment: Acute toxicity, intravenous administration; type: in vivo; conditions: male ddY mice; for Death Rate: 30 days
Source text: (§5) Compound (I) was intravenously administered to ddY mice (male; body weight, 19 to 21 g). 30 days after the administration, LD50 and LD10 were obtained through probit analysis.

[6] = Acute toxicity, intravenous administration; type: in vivo; conditions: mouse, in vivo, male ddY mice, 30 days after administration, probit analysis
Source text: as §5

Which IC50 ([1]; Mus musculus, P388 cells, 72 hours incubation, read-out: IC50) does the source give for `COc1cccc2c1C(=O)c1c(O)c3c(c(O)c1C2=O)C[C@@](O)(C(=O)CO)C[C@@H]3O[C@H]1C[C@H](N)[C@H](O)[C@H](C)O1` [ADM, Adriamycin] here?
The IC50 was 6.62 nM.

And the IC50 ([2]; Mus musculus, P388/MMC cells, 72 hours incubation, read-out: IC50)?
Its IC50 is 14.7 nM.

What about the IC50 ([3]; Mus musculus, P388/CPM cells, 72 hours incubation, read-out: IC50) of the same compound?
Its IC50 is 5.79 nM.

What about the IC50 ([4]; Mus musculus, P388/ADM cells, 72 hours incubation, read-out: IC50) of the same compound?
The IC50 was 571 nM.

And the IC50 ([5]; Mus musculus, P388/CDDP cells, 72 hours incubation, read-out: IC50)?
Its IC50 is 18.1 nM.

With `CO[C@@]12[C@H](COC(N)=O)C3=C(C(=O)C(C)=C(N)C3=O)N1C[C@@H]1N[C@@H]12` [MMC, Mitomycin C] as the compound, how does the IC50 ([1]; Mus musculus, P388, 72 h) read?
The IC50 was 40.2 nM.

And the IC50 ([2]; Mus musculus, P388, 72 h)?
The IC50 was over 300 nM.

What about the IC50 ([3]; Mus musculus, P388, 72 h) of the same compound?
Its IC50 is 94.4 nM.

What about the IC50 ([4]; Mus musculus, P388/ADM, 72 h) of the same compound?
The IC50 was 56.9 nM.

What about the IC50 ([5]; Mus musculus, P388, 72 h) of the same compound?
Its IC50 is 186 nM.

Which IC50 ([1]; P388 cells, 72 hours incubation, read-out: IC50) does the source give for `[NH2][Pt]([NH2])([Cl])[Cl]` [CDDP, Cisplatin] here?
Its IC50 is 75.4 nM.

What about the IC50 ([2]; P388/MMC cells, 72 hours incubation, read-out: IC50) of the same compound?
Its IC50 is 1090 nM.

What about the IC50 ([3]; P388/CPM cells, 72 hours incubation, read-out: IC50) of the same compound?
The IC50 was 504 nM.

And the IC50 ([4]; P388/ADM cells, 72 hours incubation, read-out: IC50)?
The IC50 was 88.3 nM.

What about the IC50 ([5]; P388/CDDP cells, 72 hours incubation, read-out: IC50) of the same compound?
The IC50 was 4080 nM.

Which results are given for `COC(=O)c1c(C)[nH]c2c(OC(=O)N3CCN(C)CC3)cc3c(c12)C(CBr)CN3C(=O)c1cc2cc(OC)c(OC)c(OC)c2[nH]1` (stereo not shown) [Compound 1]?
Mean Survival Time (ddY mice; Dose 0.48 mg/kg): No died; Death Rate (ddY mice; Dose 0.48 mg/kg): 0/20; Mean Survival Time (ddY mice; Dose 0.57 mg/kg): 11.6 +/- 3.4 days +/- SD; Death Rate (ddY mice; Dose 0.57 mg/kg): 2/20; Mean Survival Time (ddY mice; Dose 0.69 mg/kg): 11.6 +/- 1.5 days +/- SD; Death Rate (ddY mice; Dose 0.69 mg/kg): 3/20; Mean Survival Time (ddY mice; Dose 0.82 mg/kg): 8.3 +/- 1.8 days +/- SD; Death Rate (ddY mice; Dose 0.82 mg/kg): 10/20; Mean Survival Time (ddY mice; Dose 0.99 mg/kg): 6.8 +/- 1.6 days +/- SD; Death Rate (ddY mice; Dose 0.99 mg/kg): 17/20; Mean Survival Time (ddY mice; Dose 1.2 mg/kg): 5.6 +/- 1.8 days +/- SD; Death Rate (ddY mice; Dose 1.2 mg/kg): 20/20; LD10 (ddY mice; 30 days after administration, probit analysis): 0.63 mg/kg; LD50 at 720 h [6]: 0.81 mg/kg; IC50 ([1]; Mus musculus, P388, 72 h): 8.17 nM; IC50 ([2]; Mus musculus, P388, 72 h): 15.3 nM; IC50 ([3]; Mus musculus, P388, 72 h): 6.34 nM; IC50 ([4]; Mus musculus, P388/ADM, 72 h): 15.6 nM; IC50 ([5]; Mus musculus, P388, 72 h): 19.8 nM
